Reference: PMC11480411, “Mucosal sugars delineate pyrazine vs pyrazinone autoinducer signaling in Klebsiella oxytoca” (Nature Communications, 2024)

Columns and labels:
Test in all cases: PRESTO-Tango GPCR screen
Assay type in all cases: cell-based
Settings in all cases: 100 µM
F2RL2 = biological target: T1, F2RL2 (Homo sapiens, UniProt O00254)
T1 construct: purchased PRESTO-Tango GPCR kit (Roth lab / Addgene)
Method: (§1) The PRESTO-Tango analyses were performed as previously published. Briefly, HTLA cells, a HEK293 cell line that stably expresses β-arrestin-TEV and tTA-Luciferase (a kind gift from Gilad Barnea, Brown University), were plated in 96-well tissue culture plates (Eppendorf) in DMEM containing 10% FBS and 1% Penicillin/Streptomycin. One day after plating (after reaching approximately 90% confluence), 200 ng per well GPCR-Tango plasmids[37] in 20 μL DMEM were individually mixed with 400 ng polyethylenimine (Polysciences) in an equal volume of DMEM and incubated for 20 min at room temperature before adding the transfection mixture to the HTLA cells. 16-24 h after transfection, medium was replaced with 180 μL fresh DMEM containing 1% Penicillin/Streptomycin and 10 mM HEPES and 20 μL of 3 or 3-Homo to reach a final concentration of 100 μM. Supernatants were aspirated 20 h after stimulation and 50 μl per well of Bright-Glo solution (Promega) diluted 20-fold with PBS containing 20 mM HEPES was added into each well. After 15 min incubation at room temperature, luminescence was quantified using a Spectramax i3x microplate reader (Molecular Devices). Activation fold for each sample was calculated by dividing relative luminescence units (RLU) for each condition by RLUs from PBS control. Dose response curves of each chemical were performed in a similar way with varying the ligand concentration from 10^−4 M to 10^−15 M.

GPR132 = biological target: T2, GPR132 (Homo sapiens, UniProt Q9UNW8)
T2 construct: purchased PRESTO-Tango GPCR kit (Roth lab / Addgene)
Method: as §1

GPR151 = biological target: T3, GPR151 (Homo sapiens, UniProt Q8TDV0)
T3 construct: purchased PRESTO-Tango GPCR kit (Roth lab / Addgene)
Method: as §1

MC1R = biological target: T4, MC1R (Homo sapiens, UniProt Q01726)
T4 construct: purchased PRESTO-Tango GPCR kit (Roth lab / Addgene)
Method: as §1

GPR85 = biological target: T5, GPR85 (Homo sapiens, UniProt P60893)
T5 construct: purchased PRESTO-Tango GPCR kit (Roth lab / Addgene)
Method: as §1

P2RY10 = biological target: T6, P2RY10 (Homo sapiens, UniProt O00398)
T6 construct: purchased PRESTO-Tango GPCR kit (Roth lab / Addgene)
Method: as §1

GPR78 = biological target: T7, GPR78 (Homo sapiens, UniProt Q96P69)
T7 construct: purchased PRESTO-Tango GPCR kit (Roth lab / Addgene)
Method: as §1

CYSLTR1 = biological target: T8, CYSLTR1 (Homo sapiens, UniProt Q9Y271)
T8 construct: purchased PRESTO-Tango GPCR kit (Roth lab / Addgene)
Method: as §1

MRGPRX2 = biological target: T9, MRGPRX2 (Homo sapiens, UniProt Q96LB1)
T9 construct: purchased PRESTO-Tango GPCR kit (Roth lab / Addgene)
Method: as §1

CCRL2 = biological target: T10, CCRL2 (Homo sapiens, UniProt O00421)
T10 construct: purchased PRESTO-Tango GPCR kit (Roth lab / Addgene)
Method: as §1

HTR1A = biological target: T11, HTR1A (Homo sapiens, UniProt P08908)
T11 construct: purchased PRESTO-Tango GPCR kit (Roth lab / Addgene)
Method: as §1

GPR56 = biological target: T12, GPR56 (Homo sapiens, UniProt Q9Y653)
T12 construct: purchased PRESTO-Tango GPCR kit (Roth lab / Addgene)
Method: as §1

NTSR2 = biological target: T13, NTSR2 (Homo sapiens, UniProt O95665)
T13 construct: purchased PRESTO-Tango GPCR kit (Roth lab / Addgene)
Method: as §1

GRM8 = biological target: T14, GRM8 (Homo sapiens, UniProt O00222)
T14 construct: purchased PRESTO-Tango GPCR kit (Roth lab / Addgene)
Method: as §1

TA1 = biological target: T15, TA1 (Homo sapiens, UniProt Q96RJ0)
T15 construct: purchased PRESTO-Tango GPCR kit (Roth lab / Addgene)
Method: as §1

ADRA1D = biological target: T16, ADRA1D (Homo sapiens, UniProt P25100)
T16 construct: purchased PRESTO-Tango GPCR kit (Roth lab / Addgene)
Method: as §1

GPR50 = biological target: T17, GPR50 (Homo sapiens, UniProt Q13585)
T17 construct: purchased PRESTO-Tango GPCR kit (Roth lab / Addgene)
Method: as §1

GPR114 = biological target: T18, GPR114 (Homo sapiens, UniProt Q8IZF4)
T18 construct: purchased PRESTO-Tango GPCR kit (Roth lab / Addgene)
Method: as §1

GRM6 = biological target: T19, GRM6 (Homo sapiens, UniProt O15303)
T19 construct: purchased PRESTO-Tango GPCR kit (Roth lab / Addgene)
Method: as §1

GAL2 = biological target: T20, GAL2 (Homo sapiens, UniProt O43603)
T20 construct: purchased PRESTO-Tango GPCR kit (Roth lab / Addgene)
Method: as §1

GPR68 = biological target: T21, GPR68 (Homo sapiens, UniProt Q15743)
T21 construct: purchased PRESTO-Tango GPCR kit (Roth lab / Addgene)
Method: as §1

GPR44 = biological target: T22, GPR44 (Homo sapiens, UniProt Q9Y5Y4)
T22 construct: purchased PRESTO-Tango GPCR kit (Roth lab / Addgene)
Method: as §1

CCR5 = biological target: T23, CCR5 (Homo sapiens, UniProt P51681)
T23 construct: purchased PRESTO-Tango GPCR kit (Roth lab / Addgene)
Method: as §1

MRGPRG = biological target: T24, MRGPRG (Homo sapiens, UniProt Q86SM5)
T24 construct: purchased PRESTO-Tango GPCR kit (Roth lab / Addgene)
Method: as §1

NPY4R = biological target: T25, NPY4R (Homo sapiens, UniProt P50391)
T25 construct: purchased PRESTO-Tango GPCR kit (Roth lab / Addgene)
Method: as §1

CHRM1 = biological target: T26, CHRM1 (Homo sapiens, UniProt P11229)
T26 construct: purchased PRESTO-Tango GPCR kit (Roth lab / Addgene)
Method: as §1

PTGER4 = biological target: T27, PTGER4 (Homo sapiens, UniProt P35408)
T27 construct: purchased PRESTO-Tango GPCR kit (Roth lab / Addgene)
Method: as §1

P2RY4 = biological target: T28, P2RY4 (Homo sapiens, UniProt P51582)
T28 construct: purchased PRESTO-Tango GPCR kit (Roth lab / Addgene)
Method: as §1

MC4R = biological target: T29, MC4R (Homo sapiens, UniProt P32245)
T29 construct: purchased PRESTO-Tango GPCR kit (Roth lab / Addgene)
Method: as §1

S1PR3 = biological target: T30, S1PR3 (Homo sapiens, UniProt Q99500)
T30 construct: purchased PRESTO-Tango GPCR kit (Roth lab / Addgene)
Method: as §1

VIPR2 = biological target: T31, VIPR2 (Homo sapiens, UniProt P41587)
T31 construct: purchased PRESTO-Tango GPCR kit (Roth lab / Addgene)
Method: as §1

MAS1 = biological target: T32, MAS1 (Homo sapiens, UniProt P04201)
T32 construct: purchased PRESTO-Tango GPCR kit (Roth lab / Addgene)
Method: as §1

GPR77 = biological target: T33, GPR77 (Homo sapiens, UniProt Q9P296)
T33 construct: purchased PRESTO-Tango GPCR kit (Roth lab / Addgene)
Method: as §1

GPR135 = biological target: T34, GPR135 (Homo sapiens, UniProt Q8IZ08)
T34 construct: purchased PRESTO-Tango GPCR kit (Roth lab / Addgene)
Method: as §1

GABBR1 = biological target: T35, GABBR1 (Homo sapiens, UniProt Q9UBS5)
T35 construct: purchased PRESTO-Tango GPCR kit (Roth lab / Addgene)
Method: as §1

TSHR = biological target: T36, TSHR (Homo sapiens, UniProt P16473)
T36 construct: purchased PRESTO-Tango GPCR kit (Roth lab / Addgene)
Method: as §1

T35 sequence (Q9UBS5 20-961): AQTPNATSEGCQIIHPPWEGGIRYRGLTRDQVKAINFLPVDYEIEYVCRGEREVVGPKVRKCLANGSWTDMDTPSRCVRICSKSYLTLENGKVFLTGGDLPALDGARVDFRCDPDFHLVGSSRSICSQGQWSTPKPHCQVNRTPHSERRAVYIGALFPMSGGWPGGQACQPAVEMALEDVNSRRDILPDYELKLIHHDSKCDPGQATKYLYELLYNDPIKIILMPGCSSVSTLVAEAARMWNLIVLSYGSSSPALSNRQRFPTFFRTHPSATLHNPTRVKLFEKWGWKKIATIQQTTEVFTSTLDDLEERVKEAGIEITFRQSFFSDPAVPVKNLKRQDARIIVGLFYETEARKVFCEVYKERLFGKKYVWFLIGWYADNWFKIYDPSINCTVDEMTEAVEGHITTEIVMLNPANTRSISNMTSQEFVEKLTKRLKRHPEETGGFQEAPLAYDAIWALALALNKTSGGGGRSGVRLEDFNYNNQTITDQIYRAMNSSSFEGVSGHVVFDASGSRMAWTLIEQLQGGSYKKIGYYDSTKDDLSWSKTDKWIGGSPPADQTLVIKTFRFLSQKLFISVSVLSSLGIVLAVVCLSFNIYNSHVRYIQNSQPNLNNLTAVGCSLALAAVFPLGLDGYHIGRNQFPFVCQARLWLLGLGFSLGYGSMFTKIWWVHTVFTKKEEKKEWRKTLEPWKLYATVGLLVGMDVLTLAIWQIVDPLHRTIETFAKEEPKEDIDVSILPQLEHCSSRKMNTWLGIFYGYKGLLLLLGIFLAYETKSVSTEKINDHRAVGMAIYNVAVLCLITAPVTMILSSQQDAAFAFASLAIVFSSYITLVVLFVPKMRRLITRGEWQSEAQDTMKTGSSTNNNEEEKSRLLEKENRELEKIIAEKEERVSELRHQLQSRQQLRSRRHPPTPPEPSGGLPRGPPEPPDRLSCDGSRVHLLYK
T12 sequence (Q9Y653 26-693): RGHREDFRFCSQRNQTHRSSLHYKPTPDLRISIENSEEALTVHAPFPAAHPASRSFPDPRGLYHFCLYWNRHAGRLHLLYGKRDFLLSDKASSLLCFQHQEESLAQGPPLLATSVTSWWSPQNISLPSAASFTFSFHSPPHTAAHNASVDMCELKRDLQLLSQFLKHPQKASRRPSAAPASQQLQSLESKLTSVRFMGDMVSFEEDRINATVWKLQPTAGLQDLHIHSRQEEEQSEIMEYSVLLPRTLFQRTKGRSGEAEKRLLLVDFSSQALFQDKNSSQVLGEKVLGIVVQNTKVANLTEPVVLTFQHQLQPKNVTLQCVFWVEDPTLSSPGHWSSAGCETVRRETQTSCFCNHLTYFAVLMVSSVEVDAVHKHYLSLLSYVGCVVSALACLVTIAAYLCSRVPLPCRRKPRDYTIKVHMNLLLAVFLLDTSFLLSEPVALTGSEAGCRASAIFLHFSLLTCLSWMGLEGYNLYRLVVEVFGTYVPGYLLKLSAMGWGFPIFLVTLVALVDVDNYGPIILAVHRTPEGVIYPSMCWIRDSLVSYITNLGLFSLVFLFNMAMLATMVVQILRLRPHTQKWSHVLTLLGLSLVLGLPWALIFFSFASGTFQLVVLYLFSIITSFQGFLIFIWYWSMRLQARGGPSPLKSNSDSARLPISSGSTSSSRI
T11 sequence (P08908 whole entry): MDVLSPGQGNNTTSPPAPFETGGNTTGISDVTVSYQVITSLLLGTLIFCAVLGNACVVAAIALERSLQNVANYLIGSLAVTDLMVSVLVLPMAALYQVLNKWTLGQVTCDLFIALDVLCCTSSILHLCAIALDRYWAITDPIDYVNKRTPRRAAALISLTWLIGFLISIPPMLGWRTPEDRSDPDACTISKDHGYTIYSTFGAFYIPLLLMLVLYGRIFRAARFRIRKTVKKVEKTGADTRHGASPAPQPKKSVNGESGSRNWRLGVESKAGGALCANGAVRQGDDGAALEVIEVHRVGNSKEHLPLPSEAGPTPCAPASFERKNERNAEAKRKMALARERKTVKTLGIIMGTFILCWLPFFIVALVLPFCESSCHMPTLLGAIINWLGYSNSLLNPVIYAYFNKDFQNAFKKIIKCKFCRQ
T7 sequence (Q96P69 whole entry): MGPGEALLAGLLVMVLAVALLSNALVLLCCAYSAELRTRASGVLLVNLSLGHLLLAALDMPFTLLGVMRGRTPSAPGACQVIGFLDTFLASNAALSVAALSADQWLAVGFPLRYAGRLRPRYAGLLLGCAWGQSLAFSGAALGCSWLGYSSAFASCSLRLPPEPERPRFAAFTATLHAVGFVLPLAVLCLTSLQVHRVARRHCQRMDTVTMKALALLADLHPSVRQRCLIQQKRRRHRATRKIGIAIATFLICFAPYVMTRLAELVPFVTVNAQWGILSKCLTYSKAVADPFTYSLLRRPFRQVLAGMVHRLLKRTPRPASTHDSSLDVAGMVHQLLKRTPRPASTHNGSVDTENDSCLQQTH
T19 sequence (O15303 25-877): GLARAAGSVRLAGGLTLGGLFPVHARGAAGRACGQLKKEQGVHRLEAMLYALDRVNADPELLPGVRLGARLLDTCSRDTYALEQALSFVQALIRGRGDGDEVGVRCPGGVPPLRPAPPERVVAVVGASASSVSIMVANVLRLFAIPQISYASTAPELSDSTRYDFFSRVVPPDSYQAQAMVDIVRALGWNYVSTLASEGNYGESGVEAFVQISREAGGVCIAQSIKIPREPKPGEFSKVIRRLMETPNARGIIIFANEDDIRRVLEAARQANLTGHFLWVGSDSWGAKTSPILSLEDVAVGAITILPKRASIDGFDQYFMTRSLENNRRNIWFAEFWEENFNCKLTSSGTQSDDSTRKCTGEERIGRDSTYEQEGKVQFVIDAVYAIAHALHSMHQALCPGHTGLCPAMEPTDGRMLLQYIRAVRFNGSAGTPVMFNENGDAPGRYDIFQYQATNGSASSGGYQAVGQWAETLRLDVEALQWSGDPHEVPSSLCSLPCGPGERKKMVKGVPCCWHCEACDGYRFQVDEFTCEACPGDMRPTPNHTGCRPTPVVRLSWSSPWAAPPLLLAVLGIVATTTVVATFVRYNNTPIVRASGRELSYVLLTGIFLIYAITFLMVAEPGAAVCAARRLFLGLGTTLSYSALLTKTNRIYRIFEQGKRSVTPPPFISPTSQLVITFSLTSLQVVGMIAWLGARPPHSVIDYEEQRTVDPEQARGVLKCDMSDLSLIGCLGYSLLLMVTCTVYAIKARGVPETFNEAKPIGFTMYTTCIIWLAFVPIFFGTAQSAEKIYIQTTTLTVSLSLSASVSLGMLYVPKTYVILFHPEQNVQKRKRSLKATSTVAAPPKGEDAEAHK
T23 sequence (P51681 whole entry): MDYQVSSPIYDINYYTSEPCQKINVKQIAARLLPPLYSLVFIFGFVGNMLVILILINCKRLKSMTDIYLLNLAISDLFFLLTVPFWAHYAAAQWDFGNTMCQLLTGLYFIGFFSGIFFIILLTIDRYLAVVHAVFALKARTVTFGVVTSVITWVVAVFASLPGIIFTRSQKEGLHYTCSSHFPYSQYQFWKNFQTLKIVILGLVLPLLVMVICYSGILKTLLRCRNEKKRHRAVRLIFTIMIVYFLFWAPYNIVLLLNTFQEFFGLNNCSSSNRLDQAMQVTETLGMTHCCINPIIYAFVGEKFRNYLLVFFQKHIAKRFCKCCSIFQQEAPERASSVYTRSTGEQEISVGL
T32 sequence (P04201 whole entry): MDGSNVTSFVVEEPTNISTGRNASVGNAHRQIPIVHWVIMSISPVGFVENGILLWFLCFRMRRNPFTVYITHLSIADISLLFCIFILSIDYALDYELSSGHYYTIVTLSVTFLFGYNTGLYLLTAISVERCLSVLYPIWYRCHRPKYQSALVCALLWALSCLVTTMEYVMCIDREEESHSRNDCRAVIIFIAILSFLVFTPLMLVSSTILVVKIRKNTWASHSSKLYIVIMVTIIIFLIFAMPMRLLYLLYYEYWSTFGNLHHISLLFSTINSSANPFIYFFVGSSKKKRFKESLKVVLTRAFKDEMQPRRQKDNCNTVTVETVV
T22 sequence (Q9Y5Y4 whole entry): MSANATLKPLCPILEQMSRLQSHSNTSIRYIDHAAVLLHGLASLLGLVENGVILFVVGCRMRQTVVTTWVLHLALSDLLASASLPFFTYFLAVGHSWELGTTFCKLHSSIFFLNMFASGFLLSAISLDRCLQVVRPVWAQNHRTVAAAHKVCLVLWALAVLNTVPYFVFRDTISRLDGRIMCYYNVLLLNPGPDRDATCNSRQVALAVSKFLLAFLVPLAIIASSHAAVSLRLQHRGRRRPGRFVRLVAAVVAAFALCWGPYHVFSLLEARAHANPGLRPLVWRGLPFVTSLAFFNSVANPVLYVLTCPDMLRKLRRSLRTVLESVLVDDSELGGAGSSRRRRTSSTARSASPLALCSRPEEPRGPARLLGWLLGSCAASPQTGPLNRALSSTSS
T20 sequence (O43603 whole entry): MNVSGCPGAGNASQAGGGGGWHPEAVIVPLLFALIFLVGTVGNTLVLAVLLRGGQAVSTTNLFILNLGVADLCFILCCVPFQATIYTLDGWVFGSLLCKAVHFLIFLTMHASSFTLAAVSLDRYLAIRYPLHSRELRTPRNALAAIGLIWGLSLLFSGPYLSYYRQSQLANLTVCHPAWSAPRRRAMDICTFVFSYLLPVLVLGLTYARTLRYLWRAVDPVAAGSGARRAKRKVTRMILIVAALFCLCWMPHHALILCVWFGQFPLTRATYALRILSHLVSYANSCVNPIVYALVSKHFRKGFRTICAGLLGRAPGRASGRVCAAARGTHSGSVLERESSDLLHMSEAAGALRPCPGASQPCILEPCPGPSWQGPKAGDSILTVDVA
T24 sequence (Q86SM5 whole entry): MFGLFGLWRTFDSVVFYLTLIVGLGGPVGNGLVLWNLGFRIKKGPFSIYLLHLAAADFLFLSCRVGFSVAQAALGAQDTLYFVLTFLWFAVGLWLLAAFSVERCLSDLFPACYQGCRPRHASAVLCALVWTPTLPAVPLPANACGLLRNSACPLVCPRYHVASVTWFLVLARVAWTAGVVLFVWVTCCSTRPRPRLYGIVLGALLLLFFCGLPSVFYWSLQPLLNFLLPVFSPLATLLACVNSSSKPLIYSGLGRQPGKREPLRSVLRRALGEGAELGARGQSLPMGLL

Compound	GPCR activation (heatmap value) (F2RL2)	GPCR activation (heatmap value) (GPR132)	GPCR activation (heatmap value) (GPR151)	GPCR activation (heatmap value) (MC1R)	GPCR activation (heatmap value) (GPR85)	GPCR activation (heatmap value) (P2RY10)	GPCR activation (heatmap value) (GPR78)	GPCR activation (heatmap value) (CYSLTR1)	GPCR activation (heatmap value) (MRGPRX2)	GPCR activation (heatmap value) (CCRL2)	GPCR activation (heatmap value) (HTR1A)	GPCR activation (heatmap value) (GPR56)	GPCR activation (heatmap value) (NTSR2)	GPCR activation (heatmap value) (GRM8)	GPCR activation (heatmap value) (TA1)	GPCR activation (heatmap value) (ADRA1D)	GPCR activation (heatmap value) (GPR50)	GPCR activation (heatmap value) (GPR114)	GPCR activation (heatmap value) (GRM6)	GPCR activation (heatmap value) (GAL2)	further results
CC(C)Cc1ncc(CCCCNC(=N)N)[nH]c1=O [3-Homo]	-0.002642	0.4638	0.4419	-0.8565	-0.7717	-0.398	-0.4102	-0.2334	-0.6668	0.009703	-0.3927	-0.2489	-0.1953	0.556	0.4199	0.4606	0.1425	0.07141	-0.3175	0.5878	GPCR activation (heatmap value) (GPR68): -0.3643; GPCR activation (heatmap value) (GPR44): 0.02511; GPCR activation (heatmap value) (CCR5): 0.4723; GPCR activation (heatmap value) (MRGPRG): -0.5195; GPCR activation (heatmap value) (NPY4R): 1.0914; GPCR activation (heatmap value) (CHRM1): -1.546; GPCR activation (heatmap value) (PTGER4): 0.407; GPCR activation (heatmap value) (P2RY4): 0.7408; GPCR activation (heatmap value) (MC4R): -0.9791; GPCR activation (heatmap value) (S1PR3): -0.09323; GPCR activation (heatmap value) (VIPR2): 0.5382; GPCR activation (heatmap value) (MAS1): 0.05755; GPCR activation (heatmap value) (GPR77): 0.08307; GPCR activation (heatmap value) (GPR135): -0.1206; GPCR activation (heatmap value) (GABBR1): -1.048; GPCR activation (heatmap value) (TSHR): -0.3975
CC(C)Cc1ncc(CCCNC(=N)N)[nH]c1=O [compound 3]	0.07678	0.3578	-0.03391	-1.487	-0.1892	-0.2181	-0.2783	0.3416	0.1651	0.3717	-0.02258	-0.03075	-2.304	-0.7817	-0.5267	-0.2106	0.1425	0.003235	0.6597	0.1995	GPCR activation (heatmap value) (GPR68): 0.3673; GPCR activation (heatmap value) (GPR44): 0.23; GPCR activation (heatmap value) (CCR5): -0.6917; GPCR activation (heatmap value) (MRGPRG): -0.5206; GPCR activation (heatmap value) (NPY4R): 0.793; GPCR activation (heatmap value) (CHRM1): -1.184; GPCR activation (heatmap value) (PTGER4): 0.5017; GPCR activation (heatmap value) (P2RY4): 0.7544; GPCR activation (heatmap value) (MC4R): 0.1054; GPCR activation (heatmap value) (S1PR3): -0.834; GPCR activation (heatmap value) (VIPR2): -0.5721; GPCR activation (heatmap value) (MAS1): 0.09111; GPCR activation (heatmap value) (GPR77): 0.5685; GPCR activation (heatmap value) (GPR135): -1.115; GPCR activation (heatmap value) (GABBR1): 0.7353; GPCR activation (heatmap value) (TSHR): 0.2016
